Source: the supplement of paper PMC10307832

Tests used:
Assay in all cases: relative viability (nuclei count vs DMSO), 5 days (fraction); higher = more cells survive
RU-SKI 43 + Crizotinib = compound: CC[C@@H](C)CNCC(=O)N1CCC2=C([C@@H]1COC3=CC=CC(=C3)C)C=CS2 [RU-SKI 43] + C[C@@H](Oc1cc(-c2cnn(C3CCNCC3)c2)cnc1N)c1c(Cl)ccc(F)c1Cl [Crizotinib] (partner 1 µM)
In short: (§1)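 Relative viability was taken as the ratio of nuclei in treated wells to nuclei in vehicle wells. Lung cancer cell lines in 1536-well plates received compounds by pin tool one day after seeding, either one drug alone or a fixed anchor-drug dose plus five library-drug doses (not always all listed) in √10 steps. Nuclei were counted on 4× images after 5 days of treatment, and values are medians of duplicate plates.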

RU-SKI 43 + Linsitinib = compound: CC[C@@H](C)CNCC(=O)N1CCC2=C([C@@H]1COC3=CC=CC(=C3)C)C=CS2 [RU-SKI 43] + C[C@]1(O)C[C@@H](c2nc(-c3ccc4ccc(-c5ccccc5)nc4c3)c3c(N)nccn32)C1 [Linsitinib] (partner 1 µM)
In short: as §1

RU-SKI 43 + Decitabine = compound: CC[C@@H](C)CNCC(=O)N1CCC2=C([C@@H]1COC3=CC=CC(=C3)C)C=CS2 [RU-SKI 43] + Nc1ncn([C@H]2C[C@H](O)[C@@H](CO)O2)c(=O)n1 [Decitabine] (partner 2 µM)
In short: as §1

MK-8033 + Bortezomib = compound: Cn1cc(-c2cnc3ccc4ccc(CS(=O)(=O)NCc5ccccn5)cc4c(=O)c3c2)cn1 [MK-8033] + CC(C)C[C@H](NC(=O)[C@H](Cc1ccccc1)NC(=O)c1cnccn1)B(O)O [Bortezomib] (partner 0.002 µM)
In short: as §1

Cell Line	relative viability (RU-SKI 43 + Crizotinib; first compound 0.1 µM)	relative viability (RU-SKI 43 + Crizotinib; first compound 0.3162 µM)	relative viability (RU-SKI 43 + Crizotinib; first compound 1 µM)	relative viability (RU-SKI 43 + Crizotinib; first compound 3.162 µM)	relative viability (RU-SKI 43 + Crizotinib; first compound 10 µM)	relative viability (RU-SKI 43 + Linsitinib; first compound 0.1 µM)	relative viability (RU-SKI 43 + Linsitinib; first compound 0.3162 µM)	relative viability (RU-SKI 43 + Linsitinib; first compound 1 µM)	relative viability (RU-SKI 43 + Linsitinib; first compound 3.162 µM)	relative viability (RU-SKI 43 + Linsitinib; first compound 10 µM)	relative viability (RU-SKI 43 + Decitabine; first compound 0.1 µM)	relative viability (RU-SKI 43 + Decitabine; first compound 0.3162 µM)	relative viability (RU-SKI 43 + Decitabine; first compound 1 µM)	relative viability (RU-SKI 43 + Decitabine; first compound 3.162 µM)	relative viability (RU-SKI 43 + Decitabine; first compound 10 µM)	relative viability (MK-8033 + Bortezomib; first compound 0.02 µM)	relative viability (MK-8033 + Bortezomib; first compound 0.06325 µM)	relative viability (MK-8033 + Bortezomib; first compound 0.2 µM)	relative viability (MK-8033 + Bortezomib; first compound 0.6325 µM)	relative viability (MK-8033 + Bortezomib; first compound 2 µM)
201T	1.02	0.991	1.06	1.06	0.992	1.07	1.02	1.07	1.17	1.03	0.838	0.824	0.854	0.856	0.831	1.13	1.09	1.08	1.07	1.12
A549	0.775	1.12	0.847	0.71	0.52	0.73	0.762	0.656	0.596	0.613	0.256	0.263	0.25	0.307	0.234	–	–	–	–	–
A-427	0.832	0.809	0.904	–	0.651	1.08	1.22	1.13	–	1.01	0.555	0.477	0.568	0.551	0.538	0.98	1.11	1.02	0.968	0.954
ABC-1	0.993	1.21	1.26	0.939	0.563	0.924	0.775	0.801	0.569	0.845	1.01	1.14	1.2	1.07	1.17	0.307	0.263	0.319	0.337	0.313
BEN	0.933	1.14	1.03	0.865	0.758	1.02	1.2	1.15	0.965	0.922	0.806	0.692	0.812	0.729	0.78	0.937	0.751	0.578	0.631	0.807
CAL-12T	0.494	0.747	0.652	0.896	0.653	0.726	0.873	0.877	0.827	0.771	–	–	–	–	–	0.935	0.946	0.876	1.16	1.01
COR-L23	0.752	0.598	0.736	0.667	0.492	0.971	0.847	0.815	0.83	1.09	0.428	0.369	0.448	0.514	0.433	0.966	0.797	0.868	0.971	1.02
COR-L 105	0.682	0.697	0.858	0.712	0.438	0.955	1.08	1.02	1.08	0.945	0.625	0.674	0.703	0.629	0.625	0.852	0.735	0.79	0.945	0.93
Calu-6	0.781	0.871	0.936	0.726	0.594	0.942	1.05	0.999	0.929	1.02	–	–	–	–	–	0.959	1.03	1.04	0.955	1.01
ChaGo-K-1	1.15	1.27	1.26	1.17	0.951	–	–	–	–	–	0.543	0.559	0.518	0.551	0.501	1.37	0.756	0.98	1.02	0.926
EBC-1	0.19	0.183	0.202	0.176	0.155	1.04	0.936	0.847	0.956	0.827	–	–	–	–	–	0.532	0.489	0.597	0.563	0.309
EKVX	0.902	1.01	0.926	0.987	0.713	0.948	1.24	0.977	1.05	1	0.303	0.254	0.146	0.342	0.365	1	0.995	0.968	0.712	1.03
EMC-BAC-2	0.789	0.793	0.811	0.828	0.751	0.811	0.982	0.895	0.838	0.851	0.984	0.965	1.02	0.997	1.03	1	0.947	0.979	1.06	1.06
EPLC-272H	0.981	0.964	1.01	–	0.812	1.35	1.37	1.41	–	1.07	0.358	0.369	0.324	0.365	0.353	0.932	–	0.826	1.09	0.91
H3255	0.858	0.885	0.976	0.791	0.874	0.913	0.926	0.943	1.09	0.891	0.564	0.697	0.683	0.619	0.579	0.846	0.585	0.822	0.825	0.705
